Measurements published in publication PMC7156458, “Synthetic biology based construction of biological activity-related library of fungal decalin-containing diterpenoid pyrones” (Nature Communications, 2020).

Target: Aβ42 (Homo sapiens, UniProt P05067)
Assay: Th-T (thioflavin-T) assay of Aβ42 aggregation
Format: biochemical
Conditions: for Th-T fluorescence of Aβ42 with compound, mean of three wells (Fig. 7a source data): concentration 50, unit not given

Chain of Aβ42 (P05067 672-713): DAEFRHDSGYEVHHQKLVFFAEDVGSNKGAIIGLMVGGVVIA

With `C=C1CCC2C(C)(CCC=C(C)C)C(O)CCC2(C)C1Cc1c(OC)oc(CO)c(C)c1=O` (stereo not drawn) [Compound 12] the “Th-T fluorescence of Aβ42 with compound, mean of three wells (Fig. 7a source data)” value (“Th-T fluorescence of Aβ42 with compound” below) (time-course reading M143) was 1.6964, the “Th-T fluorescence of Aβ42 with compound” value (time-course reading M144) was 1.681 and the “Th-T fluorescence of Aβ42 with compound” value (time-course reading M145) was 1.696. For the same compound, the “Th-T fluorescence of Aβ42 (sheet Fig. 7a), mean of three wells” value (head suffix _10 (concentration 10), reading M63) was 3.408, the “Th-T fluorescence of Aβ42 (sheet Fig. 7a), mean of three wells” value (head suffix _10 (concentration 10), reading M64) was 3.415 and the “Th-T fluorescence of Aβ42 (sheet Fig. 7a), mean of three wells” value (head suffix _10 (concentration 10), reading M65) was 3.397. For the same compound, the “Th-T fluorescence of Aβ42 (sheet Fig. 7a), mean of three wells” value (head suffix _10 (concentration 10), reading M66) was 3.3918, the “Th-T fluorescence of Aβ42 (sheet Fig. 7a), mean of three wells” value (head suffix _10 (concentration 10), reading M67) was 3.364 and the “Th-T fluorescence of Aβ42 (sheet Fig. 7a), mean of three wells” value (head suffix _10 (concentration 10), reading M68) was 3.364. The “Th-T fluorescence of Aβ42 (sheet Fig. 7a), mean of three wells” value (head suffix _10 (concentration 10), reading M69) was 3.344, the “Th-T fluorescence of Aβ42 (sheet Fig. 7a), mean of three wells” value (head suffix _10 (concentration 10), reading M70) was 3.357 and the “Th-T fluorescence of Aβ42 (sheet Fig. 7a), mean of three wells” value (head suffix _10 (concentration 10), reading M71) was 3.333. For the same compound, the “Th-T fluorescence of Aβ42 (sheet Fig. 7a), mean of three wells” value (head suffix _10 (concentration 10), reading M72) was 3.332, the “Th-T fluorescence of Aβ42 (sheet Fig. 7a), mean of three wells” value (head suffix _10 (concentration 10), reading M73) was 3.302 and the “Th-T fluorescence of Aβ42 (sheet Fig. 7a), mean of three wells” value (head suffix _10 (concentration 10), reading M74) was 3.307. The “Th-T fluorescence of Aβ42 (sheet Fig. 7a), mean of three wells” value (head suffix _10 (concentration 10), reading M75) was 3.295, the “Th-T fluorescence of Aβ42 (sheet Fig. 7a), mean of three wells” value (head suffix _10 (concentration 10), reading M76) was 3.265 and the “Th-T fluorescence of Aβ42 (sheet Fig. 7a), mean of three wells” value (head suffix _10 (concentration 10), reading M77) was 3.239. The “Th-T fluorescence of Aβ42 (sheet Fig. 7a), mean of three wells” value (head suffix _10 (concentration 10), reading M78) was 3.245, the “Th-T fluorescence of Aβ42 (sheet Fig. 7a), mean of three wells” value (head suffix _10 (concentration 10), reading M79) was 3.216 and the “Th-T fluorescence of Aβ42 (sheet Fig. 7a), mean of three wells” value (head suffix _10 (concentration 10), reading M80) was 3.214. For the same compound, the “Th-T fluorescence of Aβ42 (sheet Fig. 7a), mean of three wells” value (head suffix _10 (concentration 10), reading M81) was 3.199, the “Th-T fluorescence of Aβ42 (sheet Fig. 7a), mean of three wells” value (head suffix _10 (concentration 10), reading M82) was 3.17 and the “Th-T fluorescence of Aβ42 (sheet Fig. 7a), mean of three wells” value (head suffix _10 (concentration 10), reading M83) was 3.151. For the same compound, the “Th-T fluorescence of Aβ42 (sheet Fig. 7a), mean of three wells” value (head suffix _10 (concentration 10), reading M84) was 3.157, the “Th-T fluorescence of Aβ42 (sheet Fig. 7a), mean of three wells” value (head suffix _20 (concentration 20), reading M63) was 2.111 and the “Th-T fluorescence of Aβ42 (sheet Fig. 7a), mean of three wells” value (head suffix _20 (concentration 20), reading M64) was 2.103. For the same compound, the “Th-T fluorescence of Aβ42 (sheet Fig. 7a), mean of three wells” value (head suffix _20 (concentration 20), reading M65) was 2.121, the “Th-T fluorescence of Aβ42 (sheet Fig. 7a), mean of three wells” value (head suffix _20 (concentration 20), reading M66) was 2.113 and the “Th-T fluorescence of Aβ42 (sheet Fig. 7a), mean of three wells” value (head suffix _20 (concentration 20), reading M67) was 2.119. The “Th-T fluorescence of Aβ42 (sheet Fig. 7a), mean of three wells” value (head suffix _20 (concentration 20), reading M68) was 2.108, the “Th-T fluorescence of Aβ42 (sheet Fig. 7a), mean of three wells” value (head suffix _20 (concentration 20), reading M69) was 2.09 and the “Th-T fluorescence of Aβ42 (sheet Fig. 7a), mean of three wells” value (head suffix _20 (concentration 20), reading M70) was 2.126. The “Th-T fluorescence of Aβ42 (sheet Fig. 7a), mean of three wells” value (head suffix _20 (concentration 20), reading M71) was 2.116, the “Th-T fluorescence of Aβ42 (sheet Fig. 7a), mean of three wells” value (head suffix _20 (concentration 20), reading M72) was 2.113 and the “Th-T fluorescence of Aβ42 (sheet Fig. 7a), mean of three wells” value (head suffix _20 (concentration 20), reading M73) was 2.112. For the same compound, the “Th-T fluorescence of Aβ42 (sheet Fig. 7a), mean of three wells” value (head suffix _20 (concentration 20), reading M74) was 2.11, the “Th-T fluorescence of Aβ42 (sheet Fig. 7a), mean of three wells” value (head suffix _20 (concentration 20), reading M75) was 2.104 and the “Th-T fluorescence of Aβ42 (sheet Fig. 7a), mean of three wells” value (head suffix _20 (concentration 20), reading M76) was 2.0857. The “Th-T fluorescence of Aβ42 (sheet Fig. 7a), mean of three wells” value (head suffix _20 (concentration 20), reading M77) was 2.081, the “Th-T fluorescence of Aβ42 (sheet Fig. 7a), mean of three wells” value (head suffix _20 (concentration 20), reading M78) was 2.114 and the “Th-T fluorescence of Aβ42 (sheet Fig. 7a), mean of three wells” value (head suffix _20 (concentration 20), reading M79) was 2.113. The “Th-T fluorescence of Aβ42 (sheet Fig. 7a), mean of three wells” value (head suffix _20 (concentration 20), reading M80) was 2.11, the “Th-T fluorescence of Aβ42 (sheet Fig. 7a), mean of three wells” value (head suffix _20 (concentration 20), reading M81) was 2.089 and the “Th-T fluorescence of Aβ42 (sheet Fig. 7a), mean of three wells” value (head suffix _20 (concentration 20), reading M82) was 2.121. For the same compound, the “Th-T fluorescence of Aβ42 (sheet Fig. 7a), mean of three wells” value (head suffix _20 (concentration 20), reading M83) was 2.116, the “Th-T fluorescence of Aβ42 (sheet Fig. 7a), mean of three wells” value (head suffix _20 (concentration 20), reading M84) was 2.082 and the “Th-T fluorescence of Aβ42 (sheet Fig. 7a), mean of three wells” value (head suffix _50 (concentration 50), reading M63) was 1.459. The “Th-T fluorescence of Aβ42 (sheet Fig. 7a), mean of three wells” value (head suffix _50 (concentration 50), reading M64) was 1.462, the “Th-T fluorescence of Aβ42 (sheet Fig. 7a), mean of three wells” value (head suffix _50 (concentration 50), reading M65) was 1.426 and the “Th-T fluorescence of Aβ42 (sheet Fig. 7a), mean of three wells” value (head suffix _50 (concentration 50), reading M66) was 1.435. The “Th-T fluorescence of Aβ42 (sheet Fig. 7a), mean of three wells” value (head suffix _50 (concentration 50), reading M67) was 1.458, the “Th-T fluorescence of Aβ42 (sheet Fig. 7a), mean of three wells” value (head suffix _50 (concentration 50), reading M68) was 1.453 and the “Th-T fluorescence of Aβ42 (sheet Fig. 7a), mean of three wells” value (head suffix _50 (concentration 50), reading M69) was 1.447. For the same compound, the “Th-T fluorescence of Aβ42 (sheet Fig. 7a), mean of three wells” value (head suffix _50 (concentration 50), reading M70) was 1.435, the “Th-T fluorescence of Aβ42 (sheet Fig. 7a), mean of three wells” value (head suffix _50 (concentration 50), reading M71) was 1.445 and the “Th-T fluorescence of Aβ42 (sheet Fig. 7a), mean of three wells” value (head suffix _50 (concentration 50), reading M72) was 1.442.
